Data as given in patent US20240059688A1, “CONOLIDINE ANALOGUES AS SELECTIVE ACKR3 MODULATORS FOR THE TREATMENT OF CANCER” (Luxembourg Institute of Health (LIH), priority 2020, published 2024).

Tests used:
Type in all cases: cell-based
CaV 3.2 = molecular target: T1, CaV 3.2 (Homo sapiens, UniProt O95180); test: CaV 3.2 calcium assay in stable human CaV3.2-HEK293 cells; conditions: control agonist calcium chloride
T1 construct: expressed in transfected cells
Description: Compounds were evaluated for kappa (KOR), mu (MOR), and delta (DOR) opioid receptor agonist and antagonist activity in three individual cell lines overexpressing Gαq16 (CHO-RD-HGA16, Molecular Devices) and the human kappa, mu, and delta opioid receptors, respectively. The day before the assay, cells were plated into 96-well black-walled assay plates at 30,000 cells/well in Ham's F12 supplemented with 10% fetal bovine serum, and 100 units of penicillin and streptomycin. The cells were incubated overnight at 37° C., 5% CO2. Prior to the assay, Calcium 5 dye (Molecular Devices) was reconstituted according to the manufacturer's instructions. The reconstituted dye was diluted 1:40 in pre-warmed (37° C.) assay buffer (1×HBSS, 20 mM HEPES, 2.5 mM probenecid, pH 7.4 at 37° C.). Growth medium was removed and the cells were gently washed with 100 μL of pre-warmed (37° C.) assay buffer. The cells were incubated for 45 minutes at 37° C., 5% CO2 in 200 μL of the diluted Calcium 5 dye. For the agonist screen, a single concentration of each test compound and receptor-specific controls (U69,593, DAMGO, and DPDPE for KOR, MOR, and DOR, respectively) were prepared at 10× the desired final concentration in 1% DMSO/assay buffer, aliquoted into a 96-well polystyrene plate, and warmed to 37° C. After the dye-loading incubation period, pretreatment solution was added to each well (25 μL of 9% DMSO/assay buffer) and, after 15 min, the plate was read with a FlexStation II (Molecular Devices). Calcium-mediated changes in fluorescence were monitored every 1.52 seconds over a 60 second time period, with the FlexStation II adding 50 μL of test compounds at the 19 second time point (excitation at 485 nm, detection at 525 nm). Peak kinetic reduction (SoftMax, Molecular Devices) relative fluorescence units (RFU) were used to calculate % control agonist Emax with the equation % Emax=(test compound RFU/control agonist RFU)×100. For the antagonist screens, the same procedure was followed except that the pretreatment solution consisted of the test compounds (prepared at […] the desired final concentration in 9% DMSO/assay buffer) and the FlexStation added the EC60 concentration (prepared at 10× the desired final concentration in 1% DMSO/assay buffer) of each respective control agonist. Peak RFU were used to calculate % control EC60 inhibition with the equation % inhibition=((EC60 RFU−test compound RFU)/EC60 RFU)×100. When IC50 determinations were made, the same antagonist screen procedure was followed except that cells were pretreated with 8-pt concentration-response curves of the test compounds. Peak RFU were plotted against the log of compound concentration using non-linear regression analysis to generate IC50 values (GraphPad Prism). Each test sample was analyzed in duplicate in two independent experiments.
Compounds were evaluated for activity at CaV 3.2 using stable human CaV3.2-HEK293 cells and the control agonist calcium chloride. The day before the assay, cells were plated into 96-well black-walled assay plates coated with poly-D-lysine in DMEM-F12 supplemented with 10% fetal bovine serum, 100 units penicillin/streptomycin, and 500 μM sodium pyruvate, and incubated at 37° C., 5% CO2 overnight. Prior to the assay, Calcium 5 dye (Molecular Devices) was reconstituted according to the manufacturer instructions. The reconstituted dye was diluted 1:10 in pre-warmed (37° C.) assay buffer (1×HBSS, […], […], pH 7.4 at 37° C.). The cells were incubated for 45 minutes at 37° C., 5% CO2 in 200 μL of the diluted Calcium 5 dye. Compounds were prepared as described above and the plate was read with a FLIPR Tetra (Molecular Devices). Calcium-mediated changes in fluorescence were monitored every 1 second over a 60 second time period, with the Tetra adding 25 μL of appropriate compound at the 10 second time point (excitation at 470-495 nm, detection at 515-575 nm). […]

ADRA2B = molecular target: T2, ADRA2B (Homo sapiens, UniProt P18089); test: GPCR β-arrestin screening (PathHunter gpcrMAX/orphanMAX), ADRA2B; conditions: conolidine 10 μM
T2 sequence (P18089 1-450): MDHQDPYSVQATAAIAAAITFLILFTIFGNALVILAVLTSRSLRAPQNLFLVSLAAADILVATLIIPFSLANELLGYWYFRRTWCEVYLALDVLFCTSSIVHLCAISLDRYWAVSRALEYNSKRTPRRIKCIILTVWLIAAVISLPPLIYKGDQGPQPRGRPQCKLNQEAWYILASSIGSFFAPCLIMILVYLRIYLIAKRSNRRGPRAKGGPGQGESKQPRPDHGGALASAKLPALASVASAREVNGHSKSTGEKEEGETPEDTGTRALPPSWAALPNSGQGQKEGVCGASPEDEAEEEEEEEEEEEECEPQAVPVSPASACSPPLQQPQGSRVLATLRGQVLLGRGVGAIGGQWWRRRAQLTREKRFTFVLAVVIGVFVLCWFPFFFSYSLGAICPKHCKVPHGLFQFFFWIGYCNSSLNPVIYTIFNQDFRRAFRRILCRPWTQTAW
Description: (§1) In an effort to identify the target of conolidine among the GPCR family, we undertook a large scale screening program using a β-arrestin recruitment assay based on β-galactosidase complementation (PathHunter, DiscoverX). Over 240 receptors were tested for their ability to be activated or inhibited by conolidine (10 μM) (data not shown). These included 168 GPCRs from the gpcrMAX panel, covering over 60 distinct receptor families such as adrenergic, dopamine, P2Y or serotonin and 74 GPCRs from the orphanMAX panel.

ADRA2BC = molecular target: T3, ADRA2BC (Homo sapiens, UniProt P18825); test: GPCR β-arrestin screening (PathHunter gpcrMAX/orphanMAX), ADRA2BC; conditions: conolidine 10 μM
T3 sequence (P18825 1-462): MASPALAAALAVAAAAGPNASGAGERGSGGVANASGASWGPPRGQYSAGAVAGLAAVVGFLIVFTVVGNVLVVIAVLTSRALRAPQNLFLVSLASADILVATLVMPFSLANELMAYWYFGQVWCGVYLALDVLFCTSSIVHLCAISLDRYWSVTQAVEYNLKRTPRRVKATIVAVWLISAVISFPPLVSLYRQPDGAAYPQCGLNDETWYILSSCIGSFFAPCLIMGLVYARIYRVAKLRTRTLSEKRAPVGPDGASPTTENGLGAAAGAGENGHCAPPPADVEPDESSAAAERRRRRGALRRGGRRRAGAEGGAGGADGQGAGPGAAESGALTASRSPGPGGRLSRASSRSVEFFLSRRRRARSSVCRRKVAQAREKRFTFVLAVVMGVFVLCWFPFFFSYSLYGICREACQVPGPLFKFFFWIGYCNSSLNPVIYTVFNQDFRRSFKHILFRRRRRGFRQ
Description: as §1

T1 sequence (O95180 whole entry): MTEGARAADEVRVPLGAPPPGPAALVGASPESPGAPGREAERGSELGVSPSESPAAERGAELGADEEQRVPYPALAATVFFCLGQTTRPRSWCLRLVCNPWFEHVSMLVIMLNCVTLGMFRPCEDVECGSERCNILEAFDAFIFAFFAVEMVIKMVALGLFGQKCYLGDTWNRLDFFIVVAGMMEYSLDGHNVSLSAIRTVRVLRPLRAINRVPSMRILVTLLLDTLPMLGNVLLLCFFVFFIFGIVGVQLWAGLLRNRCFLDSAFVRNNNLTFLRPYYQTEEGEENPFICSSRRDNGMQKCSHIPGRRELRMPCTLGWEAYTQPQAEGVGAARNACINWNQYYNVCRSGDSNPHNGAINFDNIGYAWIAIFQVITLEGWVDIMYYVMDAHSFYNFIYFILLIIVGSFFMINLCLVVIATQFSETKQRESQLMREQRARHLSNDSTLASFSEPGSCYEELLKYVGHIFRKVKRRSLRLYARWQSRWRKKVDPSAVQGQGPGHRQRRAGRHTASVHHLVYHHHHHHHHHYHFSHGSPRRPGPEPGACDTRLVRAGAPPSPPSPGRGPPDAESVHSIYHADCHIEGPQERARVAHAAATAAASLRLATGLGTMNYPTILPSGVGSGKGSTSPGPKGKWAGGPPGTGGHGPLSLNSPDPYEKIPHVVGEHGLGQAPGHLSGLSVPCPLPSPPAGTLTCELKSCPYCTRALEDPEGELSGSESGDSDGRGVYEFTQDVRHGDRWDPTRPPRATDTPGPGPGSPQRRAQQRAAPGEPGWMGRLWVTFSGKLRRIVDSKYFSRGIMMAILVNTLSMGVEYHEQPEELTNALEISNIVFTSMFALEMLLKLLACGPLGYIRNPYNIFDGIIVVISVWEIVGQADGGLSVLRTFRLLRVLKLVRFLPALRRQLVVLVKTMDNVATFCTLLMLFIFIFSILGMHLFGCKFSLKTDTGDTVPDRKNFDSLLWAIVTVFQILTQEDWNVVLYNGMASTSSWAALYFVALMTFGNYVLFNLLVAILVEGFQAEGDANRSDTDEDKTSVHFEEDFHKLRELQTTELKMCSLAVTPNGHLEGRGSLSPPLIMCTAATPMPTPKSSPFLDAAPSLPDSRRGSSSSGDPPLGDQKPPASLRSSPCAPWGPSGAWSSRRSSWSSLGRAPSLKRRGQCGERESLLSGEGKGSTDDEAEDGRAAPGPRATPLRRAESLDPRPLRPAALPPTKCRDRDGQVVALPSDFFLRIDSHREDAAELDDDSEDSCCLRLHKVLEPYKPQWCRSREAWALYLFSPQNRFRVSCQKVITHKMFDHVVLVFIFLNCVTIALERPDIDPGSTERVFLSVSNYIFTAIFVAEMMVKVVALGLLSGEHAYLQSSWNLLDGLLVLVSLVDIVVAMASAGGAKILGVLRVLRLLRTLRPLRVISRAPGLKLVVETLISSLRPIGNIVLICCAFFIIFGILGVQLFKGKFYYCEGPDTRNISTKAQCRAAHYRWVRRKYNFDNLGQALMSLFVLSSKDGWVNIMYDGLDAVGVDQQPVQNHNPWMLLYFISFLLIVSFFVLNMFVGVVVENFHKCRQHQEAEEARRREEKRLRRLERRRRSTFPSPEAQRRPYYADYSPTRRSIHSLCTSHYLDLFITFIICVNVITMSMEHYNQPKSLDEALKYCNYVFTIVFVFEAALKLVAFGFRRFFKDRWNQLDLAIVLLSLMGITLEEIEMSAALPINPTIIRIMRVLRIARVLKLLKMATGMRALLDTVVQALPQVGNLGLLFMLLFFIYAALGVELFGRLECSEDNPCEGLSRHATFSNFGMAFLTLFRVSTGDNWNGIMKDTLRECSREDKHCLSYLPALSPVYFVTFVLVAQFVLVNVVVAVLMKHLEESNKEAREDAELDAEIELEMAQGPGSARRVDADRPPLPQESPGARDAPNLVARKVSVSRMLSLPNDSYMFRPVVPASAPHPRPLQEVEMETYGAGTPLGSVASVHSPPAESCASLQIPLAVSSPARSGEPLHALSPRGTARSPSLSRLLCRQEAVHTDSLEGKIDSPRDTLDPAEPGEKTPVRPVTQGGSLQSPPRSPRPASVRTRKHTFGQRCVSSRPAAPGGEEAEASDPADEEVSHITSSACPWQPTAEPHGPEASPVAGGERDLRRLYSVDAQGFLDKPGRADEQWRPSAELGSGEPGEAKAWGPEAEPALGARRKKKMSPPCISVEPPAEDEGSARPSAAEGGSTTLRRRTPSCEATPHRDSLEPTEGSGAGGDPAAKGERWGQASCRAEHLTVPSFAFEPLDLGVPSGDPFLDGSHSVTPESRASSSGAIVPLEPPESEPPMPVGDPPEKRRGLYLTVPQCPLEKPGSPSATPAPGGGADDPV

CaV 3.2 % CaCl2 Inhibition (CaV 3.2) [%]	activity towards ADRA2B in GPCR screening (ADRA2B)	activity towards ADRA2BC in GPCR screening (ADRA2BC)	SMILES
−7	No activity was detected	No activity was detected	C/C=C1/CN2CC[C@H]1C(=O)c1[nH]c3ccccc3c1C2 [WW-1, (4E,5R)-4-ethylidene-1,4,5,7-tetrahydro-2,5-ethanoazocino[4,3-b]indol-6(3H)-one]
42	–	–	C/C=C1/CN(CCCCC)CC[C@H]1C(=O)c1cc2ccccc2[nH]1 [WW-12, [(3E,4R)-3-ethylidene-1-pentylpiperidin-4-yl](1H-indol-2-yl)methanone]
